Data on 17 compounds can be found in patent US20040029910A1, “Protoberberine derivatives which inhibit activity of the mitogen-activated protein kinase” (priority 2000, published 2004).

The subject of test [1] is knock-out mutant of wis1 (JM544). Nature of the test: Growth (cell number) of wis1 knock-out mutant. The class given is cell-based, Schizosaccharomyces pombe. As to conditions: for inhibition of the activity of Wis1 kinase, concluded from effects on knock-out mutants: conclusion from growth of knock-out mutants; for cell number: Table 5, wis1 knock-out, miconazole 3 ug/mL. How it is done:
To investigate the effect of protoberberine derivatives on the growth of cells, the cells of each strain were cultured in rich medium YE^AU to exponential phase(5×10^7 cells/mL). […]

The target in a further test is T1, Wis1 kinase (Schizosaccharomyces pombe, UniProt P33886).
T1 construct: The genes wis1 and spc1 were cloned into the pRep1 vector containing nmt1 promoter; made in house; host or cells: Schizosaccharomyces pombe KGY246 (pRep1 vector, nmt1 promoter)
T1 sequence (P33886 1-605): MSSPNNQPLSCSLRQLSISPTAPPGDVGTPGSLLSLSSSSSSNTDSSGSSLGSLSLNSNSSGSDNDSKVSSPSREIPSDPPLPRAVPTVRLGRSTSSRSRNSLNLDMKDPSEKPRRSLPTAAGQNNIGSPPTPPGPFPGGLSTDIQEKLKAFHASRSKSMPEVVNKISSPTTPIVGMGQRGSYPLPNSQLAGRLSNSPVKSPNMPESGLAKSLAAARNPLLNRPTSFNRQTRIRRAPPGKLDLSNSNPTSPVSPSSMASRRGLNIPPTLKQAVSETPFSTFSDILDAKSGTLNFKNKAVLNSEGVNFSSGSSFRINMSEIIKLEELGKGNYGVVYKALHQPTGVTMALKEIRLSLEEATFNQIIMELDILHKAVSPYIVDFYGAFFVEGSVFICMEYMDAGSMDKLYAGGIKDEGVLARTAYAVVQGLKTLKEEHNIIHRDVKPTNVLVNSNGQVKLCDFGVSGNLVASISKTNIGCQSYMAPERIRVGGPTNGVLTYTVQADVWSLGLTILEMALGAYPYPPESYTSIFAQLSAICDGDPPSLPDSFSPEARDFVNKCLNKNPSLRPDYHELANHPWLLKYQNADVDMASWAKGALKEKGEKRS
In words: Wis1 kinase activity and autophosphorylation ([γ-32P]ATP, SDS-PAGE, FIG. 2). The test is classed as biochemical. As to conditions: purified GST-Wis1, kinase reaction 30° C. 30 minutes, autophosphorylation also measured. How it is done:
The genes wis1 and spc1 were cloned into the pRep1 vector containing nmt1 promoter of which expression was inhibited by thiamin in the medium and able to tag GST. The KGY246 cells, wild type Schizosaccharomyces pombe cells were transformed with this plasmid. The expression of Wis1 and Spc1 kinase tagged with GST was induced by the cultivation of the transformed cells in MM^AU medium containing 0.4 mM thiamin followed by cultivation to exponential phase(5×10^6 cells) for about 20 hours in 100 mL of MM^AU medium in which thiamin was withdrawn. After osmotic shock(0.6M KCl) and oxidative stress were given to the cells expressing Wis1 and Spc1 tagged with GST for 25 minutes, cells were recovered at 4° C., washed with ice-cold PBS/NaF(50 mM)/NaN3(1 mM) buffer and HB buffer(25 mM HEPES, pH 7.5, 60 mM β-glycerophosphate, 15 mM EGTA, 0.1 mM Na vanadate, 0.1% triton and hydrolyzed using glass bead and bead beater purchased from Sigma. The supernatant of hydrolyzed cells was incubated with 100 mM NaCl for salting-out to remove unnecessary proteins. After the supernatant was incubated with 0.045 g/ml GST beads for 1.5 hours, proteins not bound to GST beads were removed. Purified Wis1 and Spc1 kinases were separated on 7% SDS-PAGE and the degree of purification was confirmed by western blotting using GST antibody.
Before Wis1 and Spc1 kinases purified in example 4 were analyzed, they were pre-incubated in analyzing buffer of kinase (50 mM Tris-Cl pH7.4, 20 mM MgCl2, 5 mM EGTA, 2 mM Na vanadate, 1 mM DTT). The kinase reaction was performed at 30° C. for 30 minutes in the presence of 1 mg/ml myelin basic protein(MBP), 1 mM ATP and 20 uCi of [γ-^32p]ATP and then terminated by adding SDS sample buffer and heating at 90° C. for 5 minutes. The reaction mixtures were separated on SDS-polyacrylamide gel electrophoresis. After fixation with 10% acetic acid: 10% methanol and drying, the gel was exposed on X-ray film. When Wis1 is activated by stimulus, it also activates autophosphorylation. Therefore, the degree of Wis1 autophosphorylation was also measured.

The subject of test [2] is knock-out mutant of spm1 in Mhk1-Spm1 pathway (TZs69). In words: Growth (cell number) of spm1 knock-out mutant. The test is classed as cell-based, Schizosaccharomyces pombe. As to conditions: Table 4, spm1 knock-out, miconazole 3 ug/mL. How it is done:
(§1) To investigate the effect of protoberberine derivatives on the growth of cells, the cells of each strain were cultured in rich medium YE^AU to exponential phase(5×10^7 cells/mL). These cells were transferred to YE^AU medium and cultured for 12 hours. Then cell number was measured every 3 hours.

Test [3] has as its system knock-out mutant of byr2 in Ras-Byr2 pathway (SPSU). In words: Growth (cell number) of byr2 knock-out mutant. The test is classed as cell-based, Schizosaccharomyces pombe. Particulars: Table 3, byr2 knock-out, miconazole 3 ug/mL. How it is done: as §1
Test [4] deals with knock-out mutant of spc1 (KS1366). Nature of the test: Growth (cell number) of spc1 knock-out mutant. The test is classed as cell-based, Schizosaccharomyces pombe. As to conditions: Table 6, spc1 knock-out, miconazole 3 ug/mL. How it is done:
To investigate the effect of protoberberine derivatives on the growth of cells, the cells of each strain were cultured in rich medium YE^AU to exponential phase(5×10^7 cells/mL). […] Then cell number was measured every 3 hours.

As for `COc1ccc2c(Cc3c(F)c(F)c(C(F)(F)F)c(F)c3F)c3[n+](cc2c1OC)CCc1cc2c(cc1-3)OCO2.[Cl-]` [13-(2,3,5,6-tetrafluoro-4-trifluoromethylbenzyl)berberine chloride], the “inhibition of the activity of Wis1 kinase, concluded from effects on knock-out mutants” value (from here on “inhibition … on knock-out mutants”) in test [1] is reported as “inhibited”. Moreover, the “inhibition of Wis1 kinase activity (in words)” value (“inhibition … (in words)” below) on Wis1 kinase is on record as “directly inhibited”.
The matching figures for `COc1ccc2c(Cc3ccc(OC(F)(F)F)cc3)c3[n+](cc2c1OC)CCc1cc2c(cc1-3)OCO2.[Cl-]` [13-(4-trifluoromethoxybenzyl)berberine chloride]: “inhibited” and “directly inhibited”.
The matching figures for `COc1ccc2c(Cc3c(F)cccc3Cl)c3[n+](cc2c1OC)CCc1cc2c(cc1-3)OCO2` [13-(2-chloro-6-fluorobenzyl)berberine chloride]: “inhibited” and “directly inhibited”.
`COc1ccc2c(Cc3ccccc3)c3[n+](cc2c1OC)CCc1cc2c(cc1-3)OCO2.[I-]` [13-benzylberberine iodide]: the “inhibition … on knock-out mutants” value in test [1] is on record as “inhibited”. Also, on Wis1 kinase, the “inhibition … (in words)” value is on record as “directly inhibited”.
In the case of `Clc1ccc(COC(Cn2ccnc2)c2ccc(Cl)cc2Cl)c(Cl)c1` (stereo not shown) [miconazole, reference compound], the cell number was 28 in test [2] (time 12); 27 in test [2] (time 15); 23 in test [2] (time 18); 34 in test [2] (time 21); 26 in test [2] (time 24); 32 in test [3] (time 12). In addition, the cell number is recorded as 19 in test [3] (time 15); 31 in test [3] (time 18); 30 in test [3] (time 21); 27 in test [3] (time 24); 15 in test [4] (time 12); 9 in test [4] (time 15). Besides, the cell number was found to be 12 in test [4] (time 18); 18 in test [4] (time 21); 17 in test [4] (time 24); 35 in test [1] (time 12); 37 in test [1] (time 15); 25 in test [1] (time 18). In addition, the cell number in test [1] (time 21) stood at 19; in test [1] (time 24), 12.
Consider `COc1ccc2c(Cc3ccc(C)cc3)c3[n+](cc2c1OC)CCc1cc2c(cc1-3)OCO2.[Cl-]` [13-(4-methylbenzyl)berberine chloride], for which the “inhibition … on knock-out mutants” value in test [1] is on record as “inhibited”. In addition, the “inhibition … (in words)” value against Wis1 kinase was “directly inhibited”.
With `COc1ccc2c(Cc3cccc(C(F)(F)F)c3)c3[n+](cc2c1OC)CCc1cc2c(cc1-3)OCO2.[Cl-]` [13-(3-trifluoromethylbenzyl)berberine chloride], in test [1], the “inhibition … on knock-out mutants” value is on record as “inhibited”. In addition, the “inhibition … (in words)” value on Wis1 kinase was “directly inhibited”.
The matching figures for `COC(=O)c1ccc(Cc2c3[n+](cc4c(OC)c(OC)ccc24)CCc2cc4c(cc2-3)OCO4)cc1` [13-(4-methoxycarbonylbenzyl)berberine chloride]: “inhibited” and “directly inhibited”.
Turning to `COc1ccc2c(Cc3ccc(Cl)cc3)c3[n+](cc2c1OC)CCc1cc2c(cc1-3)OCO2.[I-]` [13-(4-chlorobenzyl)berberine iodide], in test [1], the “inhibition … on knock-out mutants” value is “inhibited”. Moreover, the “inhibition … (in words)” value at Wis1 kinase was “directly inhibited”.
For the compound `COc1ccc2c(Cc3c(F)c(F)c(F)c(F)c3F)c3[n+](cc2c1OC)CCc1cc2c(cc1-3)OCO2` [13-(2,3,4,5,6-pentafluorobenzyl)berberine chloride], the “inhibition … on knock-out mutants” value in test [1] is reported as “inhibited”. Besides, the “inhibition … (in words)” value against Wis1 kinase was “directly inhibited”.
With `COc1ccc2c(Cc3ccc(C)cc3C)c3[n+](cc2c1OC)CCc1cc2c(cc1-3)OCO2.[Cl-]` [13-(2,4-dimethylbenzyl)berberine chloride], the “inhibition … on knock-out mutants” value in test [1] is “inhibited”. For the same compound, at Wis1 kinase, the “inhibition … (in words)” value was “directly inhibited”.
With `COc1ccc2c(Cc3cccc(Br)c3)c3[n+](cc2c1OC)CCc1cc2c(cc1-3)OCO2` [13-(3-bromobenzyl)berberine iodide], in test [1], the “inhibition … on knock-out mutants” value was “inhibited”. For the same compound, the “inhibition … (in words)” value against Wis1 kinase was “directly inhibited”.
The matching figures for `COc1ccc(Cc2c3[n+](cc4c(OC)c(OC)ccc24)CCc2cc4c(cc2-3)OCO4)cc1` [13-(4-methoxybenzyl)berberine chloride]: “inhibited” and “directly inhibited”.
Turning to `COc1ccc2c(Cc3ccc(C)c([N+](=O)[O-])c3)c3[n+](cc2c1OC)CCc1cc2c(cc1-3)OCO2.[Cl-]` [13-(4-methyl-3-nitrobenzyl)berberine chloride], in test [1], the “inhibition … on knock-out mutants” value is on record as “inhibited”. Also, at Wis1 kinase, the “inhibition … (in words)” value was “directly inhibited”.
Taken in the same sequence, the figures for `COc1ccc2c(Cc3ccc(F)cc3C(F)(F)F)c3[n+](cc2c1OC)CCc1cc2c(cc1-3)OCO2.[Cl-]` [13-(4-fluoro-2-trifluoromethylbenzyl)berberine chloride] were “inhibited” and “directly inhibited”.
Taken in the same sequence, the figures for `COc1ccc2c(Cc3cccc(Cl)c3Cl)c3[n+](cc2c1OC)CCc1cc2c(cc1-3)OCO2.[Cl-]` [13-(2,3-dichlorobenzyl)berberine chloride] were “inhibited” and “directly inhibited”.
Taken in the same sequence, the figures for `COc1ccc2c(Cc3ccc(C(C)C)cc3)c3[n+](cc2c1OC)CCc1cc2c(cc1-3)OCO2.[Cl-]` [13-(4-i-propylbenzyl)berberine chloride] were “inhibited” and “directly inhibited”.
